Experiments:
HDAC = assay: In vitro HDAC-inhibition assay (Fluor de Lys fluorescent activity assay); format: biochemical; details: HDAC enzyme source (e.g. nuclear extract or immunopurified HDAC complexes), Fluor de Lys substrate, 30 minutes RT
Experimental: 1) In vitro HDAC-inhibition Assay:
This assay measures a compound's ability to inhibit acetyl-lysine deacetylation in vitro and was used as both a primary screening method as well as for IC50 determinations of confirmed inhibitors. The assay is performed in vitro using an HDAC enzyme source (e.g. partially purified nuclear extract or immunopurified HDAC complexes) and a proprietary fluorescent substrate/developer system (HDAC Quantizyme Fluor de Lys Fluorescent Activity Assay, BIOMOL). The assay is run in 1,536-well Greiner white-bottom plates using the following volumes and order of addition: • Step 1: Enzyme (2.5 μL) source added to plate (from refrigerated container) • Step 2: Compounds (50 nL) added with pin transfer device • Step 3: Fluor de Lys (2.5 μL) substrate added, incubate at RT, 30 minutes • Step 4: Developer (5 μL) solution is added (containing TSA), to stop reaction • Step 5: Plate Reader—data collection
The deacetylated fluorophore is excited with 360 nm light and the emitted light (460 nm) is detected on an automated fluorometric plate reader (Aquest, Molecular Devices).

HDAC in cells = assay: Cellular HDAC inhibition (cellular histone hyperacetylation / cytotoxicity assays; Table 1 only says Cellular IC50); format: cell-based; details: transformed cell lines (e.g. HeLa, A549, MCF-7); cell line not given
Experimental: 2) Cellular Histone Hyperacetylation Assays:
These two secondary assays evaluate a compound's ability to inhibit HDAC in cells by measuring cellular histone acetylation levels. The cytoblot facilitates quantitative EC50 information for cellular HDAC inhibition. Transformed cell lines (e.g. HeLa, A549, MCF-7) are cultured under standard media and culture conditions prior to plating.
Cells (approx. 2,500/well) are allowed to adhere 10-24 hours to wells of a 384-well Greiner PS assay plate in media containing 1-5% serum. Cells are treated with appropriate compound and specific concentrations for 0 to 24 hours. Cells are washed once with PBS (60 μL) and then fixed (95% ethanol, 5% acetic acid or 2% PFA) for 1 minute at RT (30 μL). Cells are blocked with 1% BSA for 1 hour and washed and stained with antibody (e.g. anti-Acetylated Histone H3, Upstate Biotechnology), followed by washing and incubation with an appropriate secondary antibody conjugated to HRP or fluorophore. For luminescence assays, signal is generated using Luminol substrate (Santa Cruz Biotechnology) and detected using an Aquest plate reader (Molecular Devices).
3) Differential Cytotoxicity Assay:
HDAC inhibitors display differential cytotoxicity toward certain transformed cell lines. Cells are cultured according to standard ATCC recommended conditions that are appropriate to each cell type. Compounds were tested for their ability to kill different cell types (normal and transformed) using the ATPlite luminescence ATP detection assay system (Perkin Elmer). Assays are run in either 384-well or 1536-well Greiner PS plates. Cells (30 μL or 5 μL, respectively) are dispensed using either multichannel pipette for 384-well plates, or proprietary Kalypsys bulk liquid dispenser for 1536-well plates. Compounds added using proprietary pin-transfer device (500 nL or 5 nL) and incubated 5 to 30 hours prior to analysis. Luminescence is measured using Aquest plate reader (Molecular Devices).

In the case of `CC(=O)SCC(=O)c1ccc(NS(=O)(=O)c2ccc(Oc3ccccc3C)cc2)cc1` [Example 01, Thioacetic acid S-{2-oxo-2-[4-(4-o-tolyloxy-benzenesulfonylamino)-phenyl]-ethyl} ester], the IC50 (HDAC) is reported as ≤ 1 µM and the IC50 (HDAC in cells) is reported as ≤ 1 µM.
For `CC(=O)SCC(=O)c1ccc(NS(=O)(=O)c2ccc(Oc3ccccc3)cc2)cc1` [Example 03, Thioacetic acid S-{2-oxo-2-[4-(4-phenoxy-benzenesulfonylamino)-phenyl]-ethyl} ester], the IC50 (HDAC) was ≤ 1 µM and the IC50 (HDAC in cells) was ≤ 1 µM.
For `CC(=O)SCC(=O)c1ccc(NS(=O)(=O)c2ccc(Oc3ccc(Cl)cc3)cc2)cc1` [Example 04, Thioacetic acid S-(2-{4-[4-(4-chloro-phenoxy)-benzenesulfonylamino]-phenyl}-2-oxo-ethyl) ester], the IC50 (HDAC) was ≤ 1 µM and the IC50 (HDAC in cells) was ≤ 1 µM.
`CC(=O)SCC(=O)c1ccc(NS(=O)(=O)c2ccc(S(=O)(=O)N3CCOCC3)cc2)cc1` [Example 05, Thioacetic acid S-(2-{4-[4-(morpholine-4-sulfonyl)-benzenesulfonylamino]-phenyl}-2-oxo-ethyl) ester] was tested, and the IC50 (HDAC) was ≤ 1 µM and the IC50 (HDAC in cells) was ≤ 1 µM.
In the case of `CC(=O)SCC(=O)c1ccc(NS(=O)(=O)c2ccc(CN3CCOCC3)cc2)cc1` [Example 07, Thioacetic acid S-{2-[4-(4-morpholin-4-ylmethyl-benzenesulfonylamino)-phenyl]-2-oxo-ethyl} ester], the IC50 (HDAC) is reported as ≤ 1 µM and the IC50 (HDAC in cells) is reported as ≤ 1 µM.
For `CC(=O)SCC(=O)c1ccc(NS(=O)(=O)c2ccc(NCc3ccccn3)cc2)cc1` [Example 08, Thioacetic acid S-[2-oxo-2-(4-{4-[(pyridin-2-ylmethyl)-amino]-benzenesulfonylamino}-phenyl)-ethyl] ester], the IC50 (HDAC) was ≤ 1 µM and the IC50 (HDAC in cells) was ≤ 1 µM.
With `CC(=O)SCC(=O)c1ccc(NS(=O)(=O)c2ccc(OC3CCN(C)CC3)cc2)cc1` [Example 10, Thioacetic acid S-(2-{4-[4-(1-methyl-piperidin-4-yloxy)-benzenesulfonylamino]-phenyl}-2-oxo-ethyl) ester] the IC50 (HDAC) was ≤ 1 µM and the IC50 (HDAC in cells) was ≤ 1 µM.
For `CC(=O)SCC(=O)c1ccc(NS(=O)(=O)c2ccc(OCCCN3CCOCC3)cc2)nc1` [Example 11, Thioacetic acid S-(2-{6-[4-(3-morpholin-4-yl-propoxy)-benzenesulfonylamino]-pyridin-3-yl}-2-oxo-ethyl) ester], the IC50 (HDAC) was ≤ 1 µM and the IC50 (HDAC in cells) was ≤ 1 µM.
With `CC(=O)SCC(=O)c1ccc(NS(=O)(=O)c2ccc(OCCCN3CCOCC3)cc2)cc1` [Example 12, Thioacetic acid S-(2-{4-[4-(3-morpholin-4-yl-propoxy)-benzenesulfonylamino]-phenyl}-2-oxo-ethyl) ester] the IC50 (HDAC) was ≤ 1 µM and the IC50 (HDAC in cells) was ≤ 1 µM.
In the case of `CC(=O)SCC(=O)c1ccc(NS(=O)(=O)c2ccc(OCCCCc3ccccc3)cc2)cc1` [Example 13, Thioacetic acid S-(2-oxo-2-{4-[4-(4-phenyl-butoxy)-benzenesulfonylamino]-phenyl}-ethyl) ester], the IC50 (HDAC) is reported as ≤ 1 µM and the IC50 (HDAC in cells) is reported as ≤ 1 µM.
In the case of `CC(=O)SCC(=O)c1ccc(NS(=O)(=O)c2ccc(OCCCCc3ccccc3)cc2)nc1` [Example 14, Thioacetic acid S-(2-oxo-2-{6-[4-(4-phenyl-butoxy)-benzenesulfonylamino]-pyridin-3-yl}-ethyl) ester], the IC50 (HDAC) is reported as ≤ 1 µM and the IC50 (HDAC in cells) is reported as ≤ 1 µM.
For `CC(=O)SCC(=O)c1ccc(NS(=O)(=O)c2ccc(OCc3ccccn3)cc2)cc1` [Example 15, Thioacetic acid S-(2-oxo-2-{4-[4-(pyridin-2-ylmethoxy)-benzenesulfonylamino]-phenyl}-ethyl) ester], the IC50 (HDAC) was ≤ 1 µM and the IC50 (HDAC in cells) was ≤ 1 µM.
With `CC(=O)SCC(=O)c1ccc(NS(=O)(=O)c2ccc(OCCCc3cccnc3)cc2)cc1` [Example 16, Thioacetic acid S-(2-oxo-2-{4-[4-(3-pyridin-3-yl-propoxy)-benzenesulfonylamino]-phenyl}-ethyl) ester] the IC50 (HDAC) was ≤ 1 µM and the IC50 (HDAC in cells) was > 1 µM.
For `CC(=O)SCC(=O)c1ccc(NS(=O)(=O)c2ccc(OCCCc3ccccn3)cc2)cc1` [Example 17, Thioacetic acid S-(2-oxo-2-{4-[4-(3-pyridin-2-yl-propoxy)-benzenesulfonylamino]-phenyl}-ethyl) ester], the IC50 (HDAC) was ≤ 1 µM and the IC50 (HDAC in cells) was ≤ 1 µM.
`CC(=O)SCC(=O)c1ccc(NS(=O)(=O)c2ccc(OCCc3ccccn3)cc2)nc1` [Example 18, Thioacetic acid S-(2-oxo-2-{6-[4-(2-pyridin-2-yl-ethoxy)-benzenesulfonylamino]-pyridin-3-yl}-ethyl) ester] was tested, and the IC50 (HDAC) was ≤ 1 µM and the IC50 (HDAC in cells) was ≤ 1 µM.
For `CC(=O)SCC(=O)c1ccc(NS(=O)(=O)c2ccc(OCCN3CCCCC3)cc2)cc1` [Example 19, Thioacetic acid S-(2-oxo-2-{4-[4-(2-piperidin-1-yl-ethoxy)-benzenesulfonylamino]-phenyl}-ethyl) ester], the IC50 (HDAC) was ≤ 1 µM and the IC50 (HDAC in cells) was ≤ 1 µM.
In the case of `CC(=O)SCC(=O)c1ccc(NS(=O)(=O)c2ccc(OCCN3CCOCC3)cc2)cc1` [Example 20, Thioacetic acid S-(2-{4-[4-(2-morpholin-4-yl-ethoxy)-benzenesulfonylamino]-phenyl}-2-oxo-ethyl) ester], the IC50 (HDAC) is reported as ≤ 1 µM and the IC50 (HDAC in cells) is reported as ≤ 1 µM.
For `CC(=O)SCC(=O)c1ccc(NS(=O)(=O)c2ccc(OCCc3ccccn3)cc2)cc1` [Example 21, Thioacetic acid S-(2-oxo-2-{4-[4-(2-pyridin-2-yl-ethoxy)-benzenesulfonylamino]-phenyl}-ethyl) ester], the IC50 (HDAC) was ≤ 1 µM and the IC50 (HDAC in cells) was ≤ 1 µM.
For `CC(=O)SCC(=O)c1ccc(NS(=O)(=O)c2ccc(OCCCN3CCCCC3)cc2)cc1` [Example 22, Thioacetic acid S-(2-oxo-2-{4-[4-(3-piperidin-1-yl-propoxy)-benzenesulfonylamino]-phenyl}-ethyl) ester], the IC50 (HDAC) was ≤ 1 µM and the IC50 (HDAC in cells) was ≤ 1 µM.
`CC(=O)SCC(=O)c1ccc(NS(=O)(=O)c2ccc(OCc3ccccn3)cc2)nc1` [Example 23, Thioacetic acid S-(2-oxo-2-{6-[4-(pyridin-2-ylmethoxy)-benzenesulfonylamino]-pyridin-3-yl}-ethyl) ester] was tested, and the IC50 (HDAC) was ≤ 1 µM and the IC50 (HDAC in cells) was ≤ 1 µM.
For `CC(=O)SCC(=O)c1ccc(NS(=O)(=O)c2ccc(OCCN3CCCCC3)cc2)nc1` [Example 24, Thioacetic acid S-(2-oxo-2-{6-[4-(2-piperidin-1-yl-ethoxy)-benzenesulfonylamino]-pyridin-3-yl}-ethyl) ester], the IC50 (HDAC) was ≤ 1 µM and the IC50 (HDAC in cells) was ≤ 1 µM.
In the case of `CC(=O)SCC(=O)c1ccc(NS(=O)(=O)c2ccc(OCCCN3CCCCC3)cc2)nc1` [Example 25, Thioacetic acid S-(2-oxo-2-{6-[4-(3-piperidin-1-yl-propoxy)-benzenesulfonylamino]-pyridin-3-yl}-ethyl) ester], the IC50 (HDAC) is reported as ≤ 1 µM and the IC50 (HDAC in cells) is reported as ≤ 1 µM.
For `CC(=O)SCC(=O)c1ccc(NS(=O)(=O)c2ccc(OCCN3CCCC3)cc2)nc1` [Example 26, Thioacetic acid S-(2-oxo-2-{6-[4-(2-pyrrolidin-1-yl-ethoxy)-benzenesulfonylamino]-pyridin-3-yl}-ethyl) ester], the IC50 (HDAC) was ≤ 1 µM and the IC50 (HDAC in cells) was ≤ 1 µM.
In the case of `CC(=O)SCC(=O)c1ccc(NS(=O)(=O)c2ccc(OCc3cccnc3)cc2)nc1` [Example 27, Thioacetic acid S-(2-oxo-2-{6-[4-(pyridin-3-ylmethoxy)-benzenesulfonylamino]-pyridin-3-yl}-ethyl) ester], the IC50 (HDAC) is reported as ≤ 1 µM and the IC50 (HDAC in cells) is reported as ≤ 1 µM.
With `CC(=O)SCC(=O)c1ccc(NS(=O)(=O)c2ccc(OCCCc3ccccn3)cc2)nc1` [Example 28, Thioacetic acid S-(2-oxo-2-{6-[4-(3-pyridin-2-yl-propoxy)-benzenesulfonylamino]-pyridin-3-yl}-ethyl) ester] the IC50 (HDAC) was ≤ 1 µM and the IC50 (HDAC in cells) was ≤ 1 µM.
For `CC(=O)SCC(=O)c1ccc(NS(=O)(=O)c2ccc(OC3CCN(C)CC3)cc2)nc1` [Example 29, Thioacetic acid S-(2-{6-[4-(1-methyl-piperidin-4-yloxy)-benzenesulfonylamino]-pyridin-3-yl}-2-oxo-ethyl) ester], the IC50 (HDAC) was ≤ 1 µM and the IC50 (HDAC in cells) was ≤ 1 µM.
In the case of `CC(=O)SCC(=O)c1ccc(NS(=O)(=O)c2ccc(OC3CCCN(C)C3)cc2)nc1` (stereo not drawn) [Example 30, Thioacetic acid S-(2-{6-[4-(1-methyl-piperidin-3-yloxy)-benzenesulfonylamino]-pyridin-3-yl}-2-oxo-ethyl) ester], the IC50 (HDAC) is reported as ≤ 1 µM and the IC50 (HDAC in cells) is reported as ≤ 1 µM.

Source: patent publication US20070135431A1, “INHIBITORS OF HISTONE DEACETYLASE FOR THE TREATMENT OF DISEASE” (KALYPSYS, INC, priority 2005, published 2007)
